Experimental data reported in patent US20220409593A1 (ARKUDA THERAPEUTICS, priority 2019, published 2022).

Tested on: mouse BV2 cells
Assay: secretion of progranulin from mouse BV2 cells
Type: cell-based
Conditions: not given
Text: The compounds disclosed herein (e.g., compounds of Formula I, II, IIa, IIb, III, and as shown in Tables A and B) can increase the amount of progranulin or granulin in a subject. In some cases, the compounds increase the amount of progranulin in a subject. In some cases, the compounds increase the amount of granulin in a subject. In some cases, the compounds affect cells to increase secretion of progranulin. Solifenacin is a drug currently used for urinary incontinence. […] As such, the compounds disclosed herein, (e.g., compounds of Formula I, II, IIa, IIb, III, and as shown in Tables A and B) can be useful in treating disorders associated with aberrant (e.g., reduced) progranulin secretion or activity.

SMILES	secretion of progranulin
O=C(O[C@H]1CN2CCC1CC2)N1CCc2ccccc2[C@@H]1c1ccccc1 [Solifenacin]	causes the secretion of progranulin

Tested on: secreted mouse PGRN
Assay: progranulin induction cellular assay (PGRN assay, ELISA-based readout)
Conditions: Mus musculus, progranulin secreted into cell culture medium, cells named in method: mouse primary microglia, primary cortical neurons, BV-2
Experimental: Cellular Assays: To measure the efficacy of compounds, a progranulin induction cellular assay in mouse primary microglia (pMG), primary cortical neurons, and BV-2 cell lines is used. BV-2 cells are split the day before plating into a 96well plate format at approximately 80%. Cells should be plated the day before and allowed for 1 hour attachment period and for 16 hour incubation. Levels of progranulin secreted into the cell culture medium or retained in the cell lysate can be quantified using an ELISA-based readout and measurement of secreted mouse PGRN in the medium was assessed by the methodology published by Ghidoni et al. 2012. Standard ELISA kits to measure PGRN are available from vendors such as Adipogen, R&D, and Biovendor.
Table D below presents the results of a PGRN assay as described above.

SMILES	EC50
CN1CCC2(CC1)COC(N1CCc3ccccc3[C@@H]1c1ccc(F)cc1)=N2 [Compound 3058, (S)-2-(1-(4-fluorophenyl)-3,4-dihydroisoquinolin-2(1H)-yl)-8-methyl-3-oxa-1,8-diazaspiro[4.5]dec-1-ene]	380 nM
CN1CCC2(CC1)CN=C(N1CCc3ccccc3[C@@H]1c1ccc(F)cc1)O2 [Compound 3059, (S)-2-(1-(4-fluorophenyl)-3,4-dihydroisoquinolin-2(1H)-yl)-8-methyl-1-oxa-3,8-diazaspiro[4.5]dec-2-ene]	110 nM
Fc1ccc([C@H]2c3ccccc3CCN2C2=NCC3(CCNCC3)O2)cc1 [Compound 3060, (S)-2-(1-(4-fluorophenyl)-3,4-dihydroisoquinolin-2(1H)-yl)-1-oxa-3,8-diazaspiro[4.5]dec-2-ene]	110 nM
N[C@H]1C[C@@]2(CN=C(N3CCc4ccccc4[C@@H]3c3ccc(F)cc3)O2)C1 [Compound 3061, (S)-6-(1-(4-fluorophenyl)-3,4-dihydroisoquinolin-2(1H)-yl)-5-oxa-7-azaspiro[3.4]oct-6-en-2-amine]	115 nM
Fc1ccc([C@H]2c3ccccc3CCN2C2=NC[C@@H](C3CCNCC3)O2)cc1 [Compound 3067]	309 nM
N[C@@H]1CC[C@@]2(COC(N3CCc4ccccc4[C@@H]3c3ccc(F)cc3)=N2)C1 [Compound 3082, (5S,7R)-2-((S)-1-(4-fluorophenyl)-3,4-dihydroisoquinolin-2(1H)-yl)-3-oxa-1-azaspiro[4.4]non-1-en-7-amine]	160 nM
N[C@H]1CC[C@@]2(COC(N3CCc4ccccc4[C@@H]3c3ccc(F)cc3)=N2)C1 [Compound 3084, (5S,7S)-2-((S)-1-(4-fluorophenyl)-3,4-dihydroisoquinolin-2(1H)-yl)-3-oxa-1-azaspiro[4.4]non-1-en-7-amine]	204 nM
O=C1N[C@]2(CCCNC2)N=C1N1CCc2ccccc2[C@@H]1c1ccc(F)cc1 [Compound 3147]	50.1 nM
O=C1N[C@@]2(CCCNC2)N=C1N1CCc2ccccc2[C@@H]1c1ccc(F)cc1 [Compound 3148]	85.3 nM
N[C@H]1C[C@@]2(COC(N3CCc4ccccc4[C@@H]3c3ccc(F)cc3)=N2)C1 [Compound 3162]	639 nM
CN1CC[C@@]2(CN=C(N3CCc4ccccc4[C@@H]3c3ccc(F)cc3)O2)C1 [Compound 3167, (S)-2-((S)-1-(4-fluorophenyl)-3,4-dihydroisoquinolin-2(1H)-yl)-7-methyl-1-oxa-3,7-diazaspiro[4.4]non-2-ene]	176 nM

Results, then the molecule that gave them:

EC50	SMILES
68.7 nM	CN1CC[C@]2(CN=C(N3CCc4ccccc4[C@@H]3c3ccc(F)cc3)O2)C1 [Compound 3168, (R)-2-((S)-1-(4-fluorophenyl)-3,4-dihydroisoquinolin-2(1H)-yl)-7-methyl-1-oxa-3,7-diazaspiro[4.4]non-2-ene]
836 nM	Fc1ccc([C@H]2c3ccccc3CCN2C2=NC[C@]3(CCN(CC(F)(F)F)C3)O2)cc1 [Compound 3171, (R)-2-((S)-1-(4-fluorophenyl)-3,4-dihydroisoquinolin-2(1H)-yl)-7-(2,2,2-trifluoroethyl)-1-oxa-3,7-diazaspiro[4.4]non-2-ene]
1520 nM	Fc1ccc([C@H]2c3ccccc3CCN2C2=NC[C@@]3(CCN(CC(F)(F)F)C3)O2)cc1 [Compound 3172, (S)-2-((S)-1-(4-fluorophenyl)-3,4-dihydroisoquinolin-2(1H)-yl)-7-(2,2,2-trifluoroethyl)-1-oxa-3,7-diazaspiro[4.4]non-2-ene]
1040 nM	Fc1ccc([C@H]2c3ccccc3CCN2C2=NC[C@]3(CCN(CCC(F)(F)F)C3)O2)cc1 [Compound 3173, (R)-2-((S)-1-(4-fluorophenyl)-3,4-dihydroisoquinolin-2(1H)-yl)-7-(3,3,3-trifluoropropyl)-1-oxa-3,7-diazaspiro[4.4]non-2-ene]
1380 nM	Fc1ccc([C@H]2c3ccccc3CCN2C2=NC[C@@]3(CCN(CCC(F)(F)F)C3)O2)cc1 [Compound 3174, (S)-2-((S)-1-(4-fluorophenyl)-3,4-dihydroisoquinolin-2(1H)-yl)-7-(3,3,3-trifluoropropyl)-1-oxa-3,7-diazaspiro[4.4]non-2-ene]
181 nM	OCCN1CC[C@@]2(CN=C(N3CCc4ccccc4[C@@H]3c3ccc(F)cc3)O2)C1 [Compound 3175, 2-((S)-2-((S)-1-(4-fluorophenyl)-3,4-dihydroisoquinolin-2(1H)-yl)-1-oxa-3,7-diazaspiro[4.4]non-2-en-7-yl)ethan-1-ol]
318 nM	OCCCN1CC[C@@]2(CN=C(N3CCc4ccccc4[C@@H]3c3ccc(F)cc3)O2)C1 [Compound 3176, 3-((S)-2-((S)-1-(4-fluorophenyl)-3,4-dihydroisoquinolin-2(1H)-yl)-1-oxa-3,7-diazaspiro[4.4]non-2-en-7-yl)propan-1-ol]
181 nM	O[C@H]1CNC[C@]12CN=C(N1CCc3ccccc3[C@@H]1c1ccc(F)cc1)O2 [Compound 3177, (5S,9S)-2-((S)-1-(4-fluorophenyl)-3,4-dihydroisoquinolin-2(1H)-yl)-1-oxa-3,7-diazaspiro[4.4]non-2-en-9-ol]
249 nM	O[C@H]1CNC[C@@]12CN=C(N1CCc3ccccc3[C@@H]1c1ccc(F)cc1)O2 [Compound 3178, (5R,9S)-2-((S)-1-(4-fluorophenyl)-3,4-dihydroisoquinolin-2(1H)-yl)-1-oxa-3,7-diazaspiro[4.4]non-2-en-9-ol]
